Measurements: patent US20120045393A1 (priority 2009, published 2012)
Like-named read-outs stand apart in the source and are kept apart here. Non-standard residues stand in square brackets, D forms with d. Residues, ends and D or L forms follow the SMILES beside them. *: point of attachment. DOTA = O=C(O)CN1CCN(CC(=O)O)CCN(CC(=O)*)CCN(CC(=O)O)CC1; Bpa = N[C@@H](Cc1ccc(C(=O)c2ccccc2)cc1)C(=O)O; Ala(4-thiazolyl) = N[C@@H](Cc1cscn1)C(=O)O; His(π-Me) = Cn1cncc1C[C@H](N)C(=O)O; d3Pal = N[C@H](Cc1cccnc1)C(=O)O; azaGly = NNC(=O)O; Sar = CNCC(=O)O

Tested on: LHRH binding sites on human ovarian cancer cells (EFO-27)
[1] = Table 5: modifications of amino acids at positions 1 and 2, in vitro binding on EFO-27 cells
[2] = EFO-27 cells, competition with [125I-Tyr8]BRU-2477, 90 min
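Note: Cell-associated radioactivity on confluent EFO-27 monolayers in 96-well plates, measured by microplate scintillation counting.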

EC50	Structure (SMILES)	also measured
	CN(CC(=O)N[C@@H](CCCCN)C(=O)N[C@@H](Cc1c[nH]c2ccccc12)C(=O)N[C@@H](CO)C(=O)N[C@@H](Cc1c[nH]cn1)C(=O)N[C@H](CCCNC(=N)N)C(=O)N[C@@H](Cc1c[nH]c2ccccc12)C(=O)N[C@@H](Cc1ccc(C(=O)c2ccccc2)cc1)C(=O)N1CCC[C@H]1C(=O)NNC(N)=O)C(=O)CN1CCN(CC(=O)O)CCN(CC(=O)O)CCN(CC(=O)O)CC1 [BRU-2871] ({DOTA}-[Sar]KWSH[dR]W[Bpa]P[azaGly]-NH2)	EC50 [1]: 10 µM
0.54 µM	CN(CC(=O)N[C@@H](Cc1c[nH]cn1)C(=O)N[C@@H](Cc1c[nH]c2ccccc12)C(=O)N[C@@H](CO)C(=O)N[C@@H](Cc1c[nH]cn1)C(=O)N[C@H](CCCNC(=N)N)C(=O)N[C@@H](Cc1c[nH]c2ccccc12)C(=O)N[C@@H](Cc1cccc2ccccc12)C(=O)N1CCC[C@H]1C(=O)NNC(N)=O)C(=O)CN1CCN(CC(=O)O)CCN(CC(=O)O)CCN(CC(=O)O)CC1 [BRU-2720]	
0.97 µM	CCNC(=O)[C@@H]1CCCN1C(=O)[C@H](Cc1ccc(C(=O)c2ccccc2)cc1)NC(=O)[C@H](Cc1c[nH]c2ccccc12)NC(=O)[C@@H](CCCNC(=N)N)NC(=O)[C@H](Cc1c[nH]cn1)NC(=O)[C@H](CO)NC(=O)[C@H](Cc1c[nH]c2ccccc12)NC(=O)[C@H](CCCNC(=N)N)NC(=O)[C@@H](Cc1ccc2ccccc2c1)NC(=O)CN1CCN(CC(=O)O)CCN(CC(=O)O)CCN(CC(=O)O)CC1 [compound 2981]	
	C[C@@H](C(=O)N[C@@H](Cc1c[nH]cn1)C(=O)N[C@@H](Cc1c[nH]c2ccccc12)C(=O)N[C@@H](CO)C(=O)N[C@@H](Cc1c[nH]cn1)C(=O)N[C@H](CCCNC(=N)N)C(=O)N[C@@H](Cc1c[nH]c2ccccc12)C(=O)N[C@@H](Cc1ccc(C(=O)c2ccccc2)cc1)C(=O)N1CCC[C@H]1C(=O)NNC(N)=O)N(C)C(=O)CN1CCN(CC(=O)O)CCN(CC(=O)O)CCN(CC(=O)O)CC1 [BRU-2736]	EC50 [1]: 1.42 µM
	N=C(N)NCCC[C@@H](NC(=O)[C@H](Cc1c[nH]cn1)NC(=O)[C@H](CO)NC(=O)[C@H](Cc1c[nH]c2ccccc12)NC(=O)[C@H](Cc1c[nH]cn1)NC(=O)[C@H](Cc1ccccc1)NC(=O)CN1CCN(CC(=O)O)CCN(CC(=O)O)CCN(CC(=O)O)CC1)C(=O)N[C@@H](Cc1c[nH]c2ccccc12)C(=O)N[C@@H](Cc1ccc(C(=O)c2ccccc2)cc1)C(=O)N1CCC[C@H]1C(=O)NNC(N)=O [BRU-2735]	EC50 [1]: 1.14 µM
	CN(CC(=O)N[C@@H](Cc1c[nH]cn1)C(=O)N[C@@H](Cc1c[nH]c2ccccc12)C(=O)N[C@@H](CO)C(=O)N[C@@H](Cc1ccc(O)cc1)C(=O)N[C@H](CCCNC(=N)N)C(=O)N[C@@H](Cc1c[nH]c2ccccc12)C(=O)N[C@@H](Cc1ccc(C(=O)c2ccccc2)cc1)C(=O)N1CCC[C@H]1C(=O)NNC(N)=O)C(=O)CN1CCN(CC(=O)O)CCN(CC(=O)O)CCN(CC(=O)O)CC1 [BRU-2668] ({DOTA}-[Sar]HWSY[dR]W[Bpa]P[azaGly]-NH2; C-terminus assumed)	EC50 [2]: 3.47 µM
1.38 µM	CC(=O)N[C@@H](Cc1ccc(CNC(=O)CN2CCN(CC(=O)O)CCN(CC(=O)O)CCN(CC(=O)O)CC2)cc1)C(=O)N[C@@H](Cc1c[nH]cn1)C(=O)N[C@@H](Cc1c[nH]c2ccccc12)C(=O)N[C@@H](CO)C(=O)N[C@@H](Cc1c[nH]cn1)C(=O)N[C@H](CCCNC(=N)N)C(=O)N[C@@H](Cc1c[nH]c2ccccc12)C(=O)N[C@@H](Cc1ccc(C(=O)c2ccccc2)cc1)C(=O)N1CCC[C@H]1C(=O)NNC(N)=O [BRU-2881]	
4.55 µM	CN(CC(=O)N[C@@H](Cc1c[nH]cn1)C(=O)N[C@@H](Cc1c[nH]c2ccccc12)C(=O)N[C@@H](CO)C(=O)N[C@@H](Cc1c[nH]cn1)C(=O)N[C@H](CCCNC(=N)N)C(=O)N[C@@H](Cc1c[nH]c2ccccc12)C(=O)N[C@H](C(=O)N1CCC[C@H]1C(=O)NNC(N)=O)C(c1ccccc1)c1ccccc1)C(=O)CN1CCN(CC(=O)O)CCN(CC(=O)O)CCN(CC(=O)O)CC1 [BRU-2721]	
30.2 ± 8.28 µM	N=C(N)NCCC[C@H](NC(=O)[C@H](N)Cc1ccc2ccccc2c1)C(=O)N[C@@H](Cc1c[nH]c2ccccc12)C(=O)N[C@@H](CO)C(=O)N[C@@H](Cc1c[nH]cn1)C(=O)N[C@H](CCCNC(=N)N)C(=O)N[C@@H](Cc1c[nH]c2ccccc12)C(=O)N[C@@H](Cc1ccc(C(=O)c2ccccc2)cc1)C(=O)N1CCC[C@H]1C(=O)NCC(=O)NCCCCNC(=O)CN1CCN(CC(=O)O)CCN(CC(=O)O)CCN(CC(=O)O)CC1 [compound 2990]	
	N=C(N)NCCC[C@H](NC(=O)[C@@H](Cc1ccc2ccccc2c1)NC(=O)CN1CCN(CC(=O)O)CCN(CC(=O)O)CCN(CC(=O)O)CC1)C(=O)N[C@@H](Cc1c[nH]c2ccccc12)C(=O)N[C@@H](CO)C(=O)N[C@@H](Cc1c[nH]cn1)C(=O)N[C@H](CCCNC(=N)N)C(=O)N[C@@H](Cc1c[nH]c2ccccc12)C(=O)N[C@@H](Cc1ccc(C(=O)c2ccccc2)cc1)C(=O)N1CCC[C@H]1C(=O)NCC(=O)NCc1ccccc1 [compound 2988]	EC50 [2]: 0.65 µM
12.3 µM	CC(C)NCCCC[C@H](NC(=O)[C@H](Cc1c[nH]c2ccccc12)NC(=O)[C@@H](CCCNC(=N)N)NC(=O)[C@H](Cc1c[nH]cn1)NC(=O)[C@H](CO)NC(=O)[C@H](Cc1c[nH]c2ccccc12)NC(=O)[C@H](Cc1c[nH]cn1)NC(=O)CN(C)C(=O)CN1CCN(CC(=O)O)CCN(CC(=O)O)CCN(CC(=O)O)CC1)C(=O)N1CCC[C@H]1C(=O)NNC(N)=O [BRU-2675]	
0.21 ± 0.08 µM	CNCC(=O)N[C@@H](CCCNC(=N)N)C(=O)N[C@@H](Cc1c[nH]c2ccccc12)C(=O)N[C@@H](CO)C(=O)N[C@@H](Cc1c[nH]cn1)C(=O)N[C@H](CCCNC(=N)N)C(=O)N[C@@H](Cc1c[nH]c2ccccc12)C(=O)N[C@@H](Cc1ccc(C(=O)c2ccccc2)cc1)C(=O)N1CCC[C@H]1C(=O)NCCCN(C)CCCNC(=O)CN1CCN(CC(=O)O)CCN(CC(=O)O)CCN(CC(=O)O)CC1 [compound 3045]	
	N=C(N)NCCC[C@@H](NC(=O)[C@H](Cc1c[nH]cn1)NC(=O)[C@H](CO)NC(=O)[C@H](Cc1c[nH]c2ccccc12)NC(=O)[C@H](Cc1c[nH]cn1)NC(=O)[C@H](NC(=O)CNC(=O)CN1CCN(CC(=O)O)CCN(CC(=O)O)CCN(CC(=O)O)CC1)c1cccc2ccccc12)C(=O)N[C@@H](Cc1c[nH]c2ccccc12)C(=O)N[C@@H](Cc1ccc(C(=O)c2ccccc2)cc1)C(=O)N1CCC[C@H]1C(=O)NNC(N)=O [BRU-2770]	EC50 [1]: 2.7 µM
5.28 µM	CN(CC(=O)N[C@@H](Cc1cncn1C)C(=O)N[C@@H](Cc1c[nH]c2ccccc12)C(=O)N[C@@H](CO)C(=O)N[C@@H](Cc1cscn1)C(=O)N[C@H](CCCNC(=N)N)C(=O)N[C@@H](Cc1c[nH]c2ccccc12)C(=O)N[C@@H](Cc1ccc(C(=O)c2ccccc2)cc1)C(=O)N1CCC[C@H]1C(=O)NNC(N)=O)C(=O)CN1CCN(CC(=O)O)CCN(CC(=O)O)CCN(CC(=O)O)CC1 [BRU-2739] ({DOTA}-[Sar][His(π-Me)]WS[Ala(4-thiazolyl)][dR]W[Bpa]P[azaGly]-NH2; C-terminus assumed)	
	CN(CC(=O)N[C@@H](Cc1cn(C)cn1)C(=O)N[C@@H](Cc1c[nH]c2ccccc12)C(=O)N[C@@H](CO)C(=O)N[C@@H](Cc1c[nH]cn1)C(=O)N[C@H](CCCNC(=N)N)C(=O)N[C@@H](Cc1c[nH]c2ccccc12)C(=O)N[C@@H](Cc1ccc(C(=O)c2ccccc2)cc1)C(=O)N1CCC[C@H]1C(=O)NNC(N)=O)C(=O)CN1CCN(CC(=O)O)CCN(CC(=O)O)CCN(CC(=O)O)CC1 [BRU-2741]	EC50 [1]: 2.99 µM
12.3 µM	CN(CC(=O)N[C@@H](Cc1c[nH]cn1)C(=O)N[C@@H](Cc1c[nH]c2ccccc12)C(=O)N[C@@H](CO)C(=O)N[C@@H](Cc1c[nH]cn1)C(=O)N[C@H](Cc1cccnc1)C(=O)N[C@@H](Cc1c[nH]c2ccccc12)C(=O)N[C@@H](Cc1ccc(C(=O)c2ccccc2)cc1)C(=O)N1CCC[C@H]1C(=O)NNC(N)=O)C(=O)CN1CCN(CC(=O)O)CCN(CC(=O)O)CCN(CC(=O)O)CC1 [compound 2673] ({DOTA}-[Sar]HWSH[d3Pal]W[Bpa]P[azaGly]-NH2)	
0.33 ± 0.18 µM	CNCC(=O)N[C@@H](CCCNC(=N)N)C(=O)N[C@@H](Cc1c[nH]c2ccccc12)C(=O)N[C@@H](CO)C(=O)N[C@@H](Cc1c[nH]cn1)C(=O)N[C@H](CCCNC(=N)N)C(=O)N[C@@H](Cc1c[nH]c2ccccc12)C(=O)N[C@@H](Cc1ccc(C(=O)c2ccccc2)cc1)C(=O)N1CCC[C@H]1C(=O)NCCOCCOCCNC(=O)CN1CCN(CC(=O)O)CCN(CC(=O)O)CCN(CC(=O)O)CC1 [compound 3043]	
3.54 µM	N=C(N)NCCC[C@@H](NC(=O)[C@H](Cc1c[nH]cn1)NC(=O)[C@H](CO)NC(=O)[C@H](Cc1c[nH]c2ccccc12)NC(=O)[C@H](Cc1c[nH]cn1)NC(=O)[C@H](Cc1ccc2ccccc2c1)NC(=O)CN1CCN(CC(=O)O)CCN(CC(=O)O)CCN(CC(=O)O)CC1)C(=O)N[C@@H](Cc1c[nH]c2ccccc12)C(=O)N[C@@H](Cc1ccc(C(=O)c2ccccc2)cc1)C(=O)N1CCC[C@H]1C(=O)NNC(N)=O [BRU-2809]	

Structure (SMILES)	EC50	also measured
CN(CC(=O)N[C@@H](Cc1c[nH]cn1)C(=O)N[C@@H](Cc1c[nH]c2ccccc12)C(=O)N[C@@H](CO)C(=O)N[C@@H](Cc1c[nH]cn1)C(=O)N[C@H](CCCNC(=N)N)C(=O)N[C@@H](Cc1c[nH]c2ccccc12)C(=O)N[C@@H](Cc1c[nH]cn1)C(=O)N1CCC[C@H]1C(=O)NNC(N)=O)C(=O)CN1CCN(CC(=O)O)CCN(CC(=O)O)CCN(CC(=O)O)CC1 [BRU-2763] (HELM PEPTIDE1{[O=C(O)CN1CCN(CC(=O)O)CCN(CC(=O)[*:2])CCN(CC(=O)O)CC1].[Sar].H.W.S.H.[dR].W.H.P.[O=C(NN[*:1])[*:2]].[am]}$$$$V2.0)	13.6 µM	
CN(CC(=O)N[C@@H](Cc1c[nH]cn1)C(=O)N[C@@H](Cc1c[nH]c2ccccc12)C(=O)N[C@@H](CO)C(=O)N[C@@H](Cc1c[nH]cn1)C(=O)N[C@H](CCCNC(=N)N)C(=O)N[C@@H](Cc1c[nH]c2ccccc12)C(=O)N[C@@H](CCCNC(=N)N)C(=O)N1CCC[C@H]1C(=O)NNC(N)=O)C(=O)CN1CCN(CC(=O)O)CCN(CC(=O)O)CCN(CC(=O)O)CC1 [BRU-2723] (HELM PEPTIDE1{[O=C(O)CN1CCN(CC(=O)O)CCN(CC(=O)[*:2])CCN(CC(=O)O)CC1].[Sar].H.W.S.H.[dR].W.R.P.[O=C(NN[*:1])[*:2]].[am]}$$$$V2.0)	2.83 µM	
